From patent US6185453A, “Iontophoretic delivery of integrin inhibitors” (DuPont Pharmaceuticals Company, priority 1997, dated 2001)
Several values for one entry are separate records, joined by “and”; a condition that tells them apart may be missing. Equal entries are not always repeated. Structures can show the parent of a compound that is named as a salt. Blank lines part the entries; values can stand above or below the compound they belong to.

Columns and labels:
[1] = In vitro excised porcine skin iontophoretic delivery (flow-through diffusion cell); assay type: in vitro ADME; conditions: for Dose Delivered: 18 hours iontophoresis, 2 cm^2 patch
Protocol: The iontophoretic delivery of a representative GPIIb/IIIa inhibitor compound, Compound A, was carried out in a flow-through diffusion cell in vitro excised skin delivery system. The transdermal patch design used in these studies included an absorbent drug reservoir with 2 cm^2 active area of skin contact and a volume of 0.3 mL. The drug reservoir compartment was separated from the electrode compartment by a semi-permeable membrane with a molecular weight cutoff of 100. The electrode compartment included a silver […] and a cation exchange media in a hydrogel matrix. The drug reservoir compartment was filled with dosing solution just before application to the skin. A silver-silver chloride mesh return cathode was located upstream of the polycarbonate flow-through cells. Freshly dermatomed (1 mm) porcine skin was mounted in the cells on a porous support polyethylene. The patches included an absorbent reservoir in contact with silver and silver chloride electrodes. They were dosed with aqueous solutions of the drug and then placed on top of the excised skin. The patches were secured by a spring loaded mechanism which maintained even pressure over the patch. The cells were "perfused" by means of a peristaltic pump which pulls receiver solution through them. Effluents from the cells were collected with a fraction collector. Flow rates were typically 0.25 mL/min. The receiver solution was an isotonic pH 7.4 buffered saline solution containing 10 mM HEPES, 100 mM NaCl, PEG 400, and a surfactant, Pluronic P-103. Iontophoresis current was provided by a constant current power supplies, and the applied currents and cell voltages were recorded with a data logger. The flux profile vs. time and the cumulative dose delivered with 18 hours of iontophoresis were determined. This was followed by 3 hours where no current was applied. Concentrations of Compound A were determined using a radiolabeled marker or by HPLC. A study was performed using applied currents of 0-800 μA, and concentrations of Compound A in the patch of 50 or 100 mg/mL. Additional studies were performed using lower applied currents, lower concentrations of Compound A in the patch, and dosing solutions containing various concentrations of NaCl. […] At 100 μA the delivery rate of Compound A was approximately 10 μg/hr for the 2 cm^2 surface area, which was also within the targeted range. An alternative patch design, a monolithic patch rather than the membrane separated patch, was also tested. This patch is composed of two layers of absorbent material between which is sandwiched a silver anode.

[2] = In vivo swine iontophoretic delivery / IV infusion, plasma concentrations (LC-MS); set-up: species or system Yorkshire swine; conditions: for in vivo delivery rate: 10 mg/mL, by comparison with IV infusion of Compound B
Source text: In each experiment, the patches were loaded with drug solution immediately before application to the skin of the animals. Unanesthetized Yorkshire swine with weights from about 20 to 35 kg were used. The skin sites receiving the patches were wiped clean with moist gauze pads. Patches were overwrapped with an adhesive, elastic wrap to hold the patches in place. Separate constant current power supplies were provided for each iontophoresis patch system. Current and voltage readings were made and recorded on-board dataloggers. Blood samples were withdrawn from the vena cava through an IV catheter into VACUTAINER™ blood collection tubes containing EDTA. After gentle mixing, the tubes were centrifuged to separate the plasma, which transferred to clean polypropylene tubes and frozen on dry ice. Frozen samples were stored at -80° C. until assayed.
Compound B concentrations in plasma were determined by LC-MS. The patches used were of the monolithic design described above, and having a 2 cm^2 skin coverage area. Patches were filled with solutions containing 10-20 mg/mL Compound A and 154 mM NaCl. […], plasma concentrations of Compound B increased for the first 5-8 hours of dosing and then reached steady-state.Steady-state plasma concentrations of approximately 1-2 ng/mL were attained. After an intravenous infusion of Compound B at 10 μg/hr, steady-state plasma concentrations of Compound B were also approximately 1-2 ng/mL. Therefore, the transdermal delivery rate at steady-state was approximately 10 μg/hr.
Pigs were also dosed with patches containing 10 mg/mL of Compound A, using currents of 50 and 100 μA. In these studies four patches were used for each pig, for a total skin coverage area of 8 cm^2. […] Actual in vivo delivery rates were estimated by comparison with plasma concentrations after intravenous infusion of Compound B. The 50 μA current delivered Compound A at approximately 25 μg/hr, and the 100 μA current delivered Compound A at approximately 40 μg/hr.

[3] = iontophoresis of 10 mg/mL Compound A, 50 and 100 μA, four patches (8 cm^2)

skin permeation [1]: very low skin permeation | Dose Delivered ([1]; 0 μA, 100 mg/mL Compound A (as salt), methanesulfonate salt): 0.2 mg and 0.1 mg | transdermal delivery rates versus applied current ([1]; 10 mg/mL Compound A, 154 mM NaCl, 0, 25, 50, and 100 μA): proportional to the applied current | time to maximum delivery ([1]; 50 or 100 mg/mL Compound A, iontophoresis): about 5 hours | delivery rate ([1]; 100 μA, 10 mg/mL Compound A, 154 mM NaCl, 2 cm^2): approximately 10 μg/hr | Dose Delivered ([1]; 200 μA, 100 mg/mL Compound A (as salt), methanesulfonate salt): 1.2 mg and 1.1 mg and 1.0 mg | Dose Delivered ([1]; 400 μA, 50 mg/mL Compound A (as salt)): 1.1 mg | Dose Delivered ([1]; 800 μA, 50 mg/mL Compound A (as salt), methanesulfonate salt): 2.1 mg and 2.3 mg | variability in delivery from skin to skin ([1]; FIG. 2, 10 mg/mL, 154 mM NaCl, 50 μA): extremely low | in vitro delivery versus current ([1]; FIG. 3, 10 mg/mL, 9 mg/mL NaCl, 0-100 μA): proportional to increase in current | consistency of delivery ([1]; for any specified drug concentration and applied current): generally very consistent | transdermal delivery ([1]; in the presence of the applied current): greatly increased | delivery rates ([1]; when the current was turned off): very low levels | dosing rates ([1]; within the target range, 50 or 100 mg/mL Compound A): 5 to 250 µg/h | transdermal delivery rate at steady-state ([2]; 20 mg/mL Compound A, 100 μA, 2 cm^2, by comparison with IV infusion): approximately 10 μg/hr | blood levels, iontophoresis (FIG. 5) compared with constant IV infusion of Compound B (FIG. 4) ([2]; 20 mg/mL, 154 mM NaCl, 200 μA, 2 cm^2 vs IV 10 μg/h): similar | in vivo delivery rate ([2]; 50 μA, four patches (8 cm^2)): approximately 25 μg/hr | in vivo delivery rate ([2]; 100 μA, four patches (8 cm^2)): approximately 40 μg/hr | variability in plasma levels with iontophoresis ([2]; FIG. 5, 20 mg/mL, 154 mM NaCl, 200 μA, 2 cm^2): extremely low | in vivo conversion to acid form (Compound B) ([2]; in vivo): rapidly converted to its acid form
SMILES: CCCCOC(=O)N[C@@H](CNC(=O)C[C@H]1CC(c2ccc(C(=N)N)cc2)=NO1)C(=O)OC [Compound A, methyl-N^3-[2-{3-(4-formamidinophenyl)-isoxazolin-5(R)-yl}-acetyl]-N^2-(n-butyloxycarbonyl)-2,3-(S)-diaminopropionate methanesulfonate salt]

steady-state plasma concentrations ([2]; approximately, intravenous infusion of Compound B at 10 μg/hr): 1 to 2 ng/mL | period of plasma concentration increase before apparent steady-state [2, 3]: first several hours | plasma concentrations during 24 hours of iontophoretic dosing [2, 3]: fairly constant | plasma concentrations versus applied current [2, 3]: proportional to the applied current | time during which plasma concentrations increased before steady-state ([2]; iontophoresis of 20 mg/mL Compound A, 100 μA, 2 cm^2): 5 to 8 h
SMILES: CCCCOC(=O)N[C@@H](CNC(=O)C[C@H]1CC(c2ccc(C(=N)N)cc2)=NO1)C(=O)O [Compound B, N^3-[2-{3-(4-formamidinophenyl)-isoxazolin-5(R)-yl}-acetyl]-N^2-(n-butyloxycarbonyl)-2,3-(S)-diaminopropanoic acid]
